Experimental data taken from US20260055113A1, “HETEROARYL COMPOUNDS FOR THE TREATMENT OF CANCER” (Hoffmann-La Roche Inc., priority 2022, published 2026).

What was measured:
CD73 = CD73 (Homo sapiens (Human), UniProt P21589); experiment: CD73 cellular assay (MDA-MB-231 cells, malachite readout); format: cell-based; conditions: AMP substrate, 45 min, read-out: Cellular IC50 against CD73
Description: After incubating with compounds for 30 minutes, 40 μL of AMP working solution (200 μM AMP in assay buffer) was added into each well in the assay plate. The assay plate was then incubated in a 5% CO2 incubator (Thermo Fisher Scientific) at 37° C. for 45 min. After the reaction was completed, 50 μL of the supernatants was collected and transferred into a new 384 well plate. 10 μL of Malachite A was added to each well in the assay plate and incubated for 10 minutes. 10 μL of Malachite B was then added to each corresponding well of the plate and incubated for 30 minutes.

[1] = Human microsomal stability assay; format: in vitro ADME; conditions: human liver microsomes 0.5 mg/mL, 1 μM test compound, 37° C., pH 7.4
Description: Human liver microsomes (Cat. NO.: 452117, Corning, USA) were preincubated with test compound for 10 minutes at 37° C. in 100 mM potassium phosphate buffer, pH 7.4. The reactions were initiated by adding NADPH regenerating system. The final incubation mixtures contained 1 μM test compound, 0.5 mg/mL liver microsomal protein, 1 mM MgCl2, 1 mM NADP, 1 unit/mL isocitric dehydrogenase and 6 mM isocitric acid in 100 mM potassium phosphate buffer, pH 7.4. After incubation times of 0, 3, 6, 9, 15 and 30 minutes at 37° C., 300 μL of cold ACN (including internal standard) was added to 100 μL incubation mixture to terminate the reaction. Following precipitation and centrifugation, 100 μL supernatant will be taken out and added 300 μL water. The amount of compound remaining in the samples was determined by LC-MS/MS. Controls of no NADPH regenerating system at zero and 30 minutes were also prepared and analyzed. The results were categorized as: low (<7.0 mL/min/kg), medium (7.0-16.2 mL/min/kg) and high (16.2-23.2 mL/min/kg).

CD73, sequence (P21589 27-574): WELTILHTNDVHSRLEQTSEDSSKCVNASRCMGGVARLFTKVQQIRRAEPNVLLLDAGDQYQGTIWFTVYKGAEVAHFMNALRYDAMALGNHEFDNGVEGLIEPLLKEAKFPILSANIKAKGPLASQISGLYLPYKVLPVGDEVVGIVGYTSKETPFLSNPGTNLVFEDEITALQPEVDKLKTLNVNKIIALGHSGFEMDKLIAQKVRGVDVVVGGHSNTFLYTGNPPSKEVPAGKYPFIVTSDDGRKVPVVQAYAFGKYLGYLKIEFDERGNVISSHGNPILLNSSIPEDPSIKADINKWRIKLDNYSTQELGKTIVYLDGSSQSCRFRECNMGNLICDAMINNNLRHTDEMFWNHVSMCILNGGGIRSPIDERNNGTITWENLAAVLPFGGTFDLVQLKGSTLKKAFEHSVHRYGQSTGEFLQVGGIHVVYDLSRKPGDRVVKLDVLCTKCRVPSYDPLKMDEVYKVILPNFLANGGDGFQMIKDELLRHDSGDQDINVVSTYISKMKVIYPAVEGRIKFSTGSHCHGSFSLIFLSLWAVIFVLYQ

IC50 (CD73) [nM]	CL (h) [1] [mL/min/kg]	SMILES
2.1		CC(C1CCCC1)N(C)c1nn(C)c2nnc(-c3c[nH]c(=O)[nH]c3=O)cc12 (centres unmarked) [Example 35, 5-[3-[1-cyclopentylethyl(methyl)amino]-1-methyl-pyrazolo[3,4-c]pyridazin-5-yl]-1H-pyrimidine-2,4-dione]
159	6.15	Cn1nnc2nnc(-c3c[nH]c(=O)[nH]c3=O)cc21 [Example 4, 5-(1-methyltriazolo[4,5-c]pyridazin-6-yl)-1H-pyrimidine-2,4-dione]
3.9	9.03	CC(Oc1nn(C)c2nnc(-c3c[nH]c(=O)[nH]c3=O)cc12)c1ccncc1 (centres unmarked) [Example 19, 5-[1-methyl-3-[1-(4-pyridyl)ethoxy]pyrazolo[3,4-c]pyridazin-5-yl]-1H-pyrimidine-2,4-dione]
6.9	6.36	CC(Oc1nn(C)c2nnc(-c3c[nH]c(=O)[nH]c3=O)cc12)c1cccc(C(F)(F)F)c1 (centres unmarked) [Example 20, 5-[1-methyl-3-[1-[3-(trifluoromethyl)phenyl]ethoxy]pyrazolo[3,4-c]pyridazin-5-yl]-1H-pyrimidine-2,4-dione]
9.9	6.15	C[C@H](Oc1nn(C)c2nnc(-c3c[nH]c(=O)[nH]c3=O)cc12)c1ccc(Cl)nn1 [Example 45, 5-[3-[(1S)-1-(6-chloropyridazin-3-yl)ethoxy]-1-methyl-pyrazolo[3,4-c]pyridazin-5-yl]-1H-pyrimidine-2,4-dione]
	8.11	Cc1cccc([C@H](C)Oc2nn(C)c3nnc(-c4c[nH]c(=O)[nH]c4=O)cc23)n1 [Example 41, 5-[1-methyl-3-[(1S)-1-(6-methyl-2-pyridyl)ethoxy]pyrazolo[3,4-c]pyridazin-5-yl]-1H-pyrimidine-2,4-dione]
3.5	6.15	CC(Oc1nn(C)c2nnc(-c3c[nH]c(=O)[nH]c3=O)cc12)c1ccc(F)cc1 (centres unmarked) [Example 16, 5-[3-[1-(4-fluorophenyl)ethoxy]-1-methyl-pyrazolo[3,4-c]pyridazin-5-yl]-1H-pyrimidine-2,4-dione]
	6.15	CC(c1ccccc1)c1nn(C)c2nnc(-c3c[nH]c(=O)[nH]c3=O)cc12 (centres unmarked) [Example 5, 5-[1-methyl-3-(1-phenylethyl)pyrazolo[3,4-c]pyridazin-5-yl]-1H-pyrimidine-2,4-dione]
12.9	6.15	Cn1nc(C2(c3ccccc3)CC2)c2cc(-c3c[nH]c(=O)[nH]c3=O)nnc21 [Example 6, 5-[1-methyl-3-(1-phenylcyclopropyl)pyrazolo[3,4-c]pyridazin-5-yl]-1H-pyrimidine-2,4-dione]
	6.15	Cn1nc(O[C@H](c2ccccc2)C(F)F)c2cc(-c3c[nH]c(=O)[nH]c3=O)nnc21 [Example 28, 5-[3-[(1R)-2,2-difluoro-1-phenyl-ethoxy]-1-methyl-pyrazolo[3,4-c]pyridazin-5-yl]-1H-pyrimidine-2,4-dione]
	6.15	Cn1nc(O[C@@H](c2ccc(F)cn2)C(F)F)c2cc(-c3c[nH]c(=O)[nH]c3=O)nnc21 [Example 32B, 5-[3-[(1S)-2,2-difluoro-1-(5-fluoro-2-pyridyl)ethoxy]-1-methyl-pyrazolo[3,4-c]pyridazin-5-yl]-1H-pyrimidine-2,4-dione]
4.1	7.78	Cc1ccnc([C@H](C)Oc2nn(C)c3nnc(-c4c[nH]c(=O)[nH]c4=O)cc23)c1 [Example 42, 5-[1-methyl-3-[(1S)-1-(4-methyl-2-pyridyl)ethoxy]pyrazolo[3,4-c]pyridazin-5-yl]-1H-pyrimidine-2,4-dione]
	6.15	Cn1nc(O[C@@H](c2ccccn2)C(F)F)c2cc(-c3c[nH]c(=O)[nH]c3=O)nnc21 [Example 31B, 5-[3-[(1S)-2,2-difluoro-1-(2-pyridyl)ethoxy]-1-methyl-pyrazolo[3,4-c]pyridazin-5-yl]-1H-pyrimidine-2,4-dione]
3.7	6.15	CC(Oc1nn(C)c2nnc(-c3c[nH]c(=O)[nH]c3=O)cc12)c1ccccn1 (centres unmarked) [Example 17, 5-[1-methyl-3-[1-(2-pyridyl)ethoxy]pyrazolo[3,4-c]pyridazin-5-yl]-1H-pyrimidine-2,4-dione]
8	8.85	CC(Oc1nn(C)c2nnc(-c3c[nH]c(=O)[nH]c3=O)cc12)c1nc2ccccc2o1 (centres unmarked) [Example 25, 5-[3-[1-(1,3-benzoxazol-2-yl)ethoxy]-1-methyl-pyrazolo[3,4-c]pyridazin-5-yl]-1H-pyrimidine-2,4-dione]
4	7.01	CC(Oc1nn(C)c2nnc(-c3c[nH]c(=O)[nH]c3=O)cc12)c1cccc(Cl)c1 (centres unmarked) [Example 14, 5-[3-[1-(3-chlorophenyl)ethoxy]-1-methyl-pyrazolo[3,4-c]pyridazin-5-yl]-1H-pyrimidine-2,4-dione]
56.9	8.14	Cc1nn(C)c2nnc(-c3c[nH]c(=O)[nH]c3=O)cc12 [Example 1, 5-(1,3-dimethylpyrazolo[3,4-c]pyridazin-5-yl)-1H-pyrimidine-2,4-dione]
	6.15	Cn1nc(O[C@H](c2ccccn2)C(F)F)c2cc(-c3c[nH]c(=O)[nH]c3=O)nnc21 [Example 31A, 5-[3-[(1R)-2,2-difluoro-1-(2-pyridyl)ethoxy]-1-methyl-pyrazolo[3,4-c]pyridazin-5-yl]-1H-pyrimidine-2,4-dione]
	6.15	Cn1nc(O[C@@H](c2ccccn2)C(F)(F)F)c2cc(-c3c[nH]c(=O)[nH]c3=O)nnc21 [Example 29B, 5-[1-methyl-3-[(1S)-2,2,2-trifluoro-1-(2-pyridyl)ethoxy]pyrazolo[3,4-c]pyridazin-5-yl]-1H-pyrimidine-2,4-dione]
3.9	8.14	Cc1cnc(C(C)Oc2nn(C)c3nnc(-c4c[nH]c(=O)[nH]c4=O)cc23)s1 (centres unmarked) [Example 22, 5-[1-methyl-3-[1-(5-methylthiazol-2-yl)ethoxy]pyrazolo[3,4-c]pyridazin-5-yl]-1H-pyrimidine-2,4-dione]
	6.15	Cc1cccc([C@@H](Oc2nn(C)c3nnc(-c4c[nH]c(=O)[nH]c4=O)cc23)C(F)F)n1 [Example 33A, 5-[3-[(1R)-2,2-difluoro-1-(6-methyl-2-pyridyl)ethoxy]-1-methyl-pyrazolo[3,4-c]pyridazin-5-yl]-1H-pyrimidine-2,4-dione]
	6.15	Cc1nc([C@H](C)Oc2nn(C)c3nnc(-c4c[nH]c(=O)[nH]c4=O)cc23)ccc1F [Example 40, 5-[3-[(1S)-1-(5-fluoro-6-methyl-2-pyridyl)ethoxy]-1-methyl-pyrazolo[3,4-c]pyridazin-5-yl]-1H-pyrimidine-2,4-dione]
5.5		CC(N(C)c1nn(C)c2nnc(-c3c[nH]c(=O)[nH]c3=O)cc12)C(C)(C)C (centres unmarked) [Example 34, 5-[1-methyl-3-[methyl(1,2,2-trimethylpropyl)amino]pyrazolo[3,4-c]pyridazin-5-yl]-1H-pyrimidine-2,4-dione]
	6.15	CC(Oc1nn(C)c2nnc(-c3c[nH]c(=O)[nH]c3=O)cc12)c1ccccc1 (centres unmarked) [Example 10, 5-[1-methyl-3-(1-phenylethoxy)pyrazolo[3,4-c]pyridazin-5-yl]-1H-pyrimidine-2,4-dione]
	6.15	Cc1cccc([C@H](Oc2nn(C)c3nnc(-c4c[nH]c(=O)[nH]c4=O)cc23)C(F)F)n1 [Example 33B, 5-[3-[(1S)-2,2-difluoro-1-(6-methyl-2-pyridyl)ethoxy]-1-methyl-pyrazolo[3,4-c]pyridazin-5-yl]-1H-pyrimidine-2,4-dione]
104		Cn1ncc2nnc(-c3c[nH]c(=O)[nH]c3=O)cc21 [Example 3, 5-(1-methylpyrazolo[4,3-c]pyridazin-6-yl)-1H-pyrimidine-2,4-dione]
	6.15	Cn1nc(O[C@H](c2ccc(F)cn2)C(F)F)c2cc(-c3c[nH]c(=O)[nH]c3=O)nnc21 [Example 32A, 5-[3-[(1R)-2,2-difluoro-1-(5-fluoro-2-pyridyl)ethoxy]-1-methyl-pyrazolo[3,4-c]pyridazin-5-yl]-1H-pyrimidine-2,4-dione]
58.6		CC(Oc1nn(C)c2nnc(-c3c[nH]c(=O)[nH]c3=O)cc12)c1nn(C)cc1Cl (centres unmarked) [Example 23, 5-[3-[1-(4-chloro-1-methyl-pyrazol-3-yl)ethoxy]-1-methyl-pyrazolo[3,4-c]pyridazin-5-yl]-1H-pyrimidine-2,4-dione]
	8.44	Cn1nc(O[C@@H](c2ccccc2)C(F)(F)F)c2cc(-c3c[nH]c(=O)[nH]c3=O)nnc21 [Example 30B, 5-[1-methyl-3-[(1S)-2,2,2-trifluoro-1-phenyl-ethoxy]pyrazolo[3,4-c]pyridazin-5-yl]-1H-pyrimidine-2,4-dione]
